Laboratory results taken from ChEMBL document CHEMBL5523725, “Fragment-Based Anti-inflammatory Agent Design and Target Identification: Discovery of AF-45 as an IRAK4 Inhibitor to Treat Ulcerative Colitis and Acute Lung Injury” (J Med Chem, 2024).
The source made the active and inactive calls. No cut-off for these calls is given here.

How the values were obtained:
[1] = target: T1, Interleukin-1 receptor-associated kinase 4 (Mus musculus) (UniProt Q8R4K2); assay: Thermal stabilization of IRAK4 in mouse RAW264.7 cells at 10 uM measured after 4 hrs by CETSA; assay type: cell-based
T1 sequence (whole entry): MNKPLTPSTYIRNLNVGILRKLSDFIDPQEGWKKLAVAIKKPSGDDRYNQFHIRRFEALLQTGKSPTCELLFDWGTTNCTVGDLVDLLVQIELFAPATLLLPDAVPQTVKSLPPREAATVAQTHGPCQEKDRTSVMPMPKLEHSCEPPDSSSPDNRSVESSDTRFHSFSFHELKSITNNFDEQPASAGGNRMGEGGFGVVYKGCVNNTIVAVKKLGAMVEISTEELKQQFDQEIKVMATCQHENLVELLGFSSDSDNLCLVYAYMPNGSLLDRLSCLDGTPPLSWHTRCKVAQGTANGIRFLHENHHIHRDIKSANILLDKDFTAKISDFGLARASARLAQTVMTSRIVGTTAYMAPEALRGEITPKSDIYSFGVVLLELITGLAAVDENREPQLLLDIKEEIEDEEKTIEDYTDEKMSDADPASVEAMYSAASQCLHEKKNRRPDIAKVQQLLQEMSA

RAW264.7 [2] = assay: Inhibition of NFkappaB/MAPK signaling pathway in mouse RAW264.7 cells assessed as reduction in LPS-induced p65 phosphorylation at 50 uM by Western blot analysis; assay type: cell-based
RAW264.7 [3] = assay: Inhibition of NFkappaB/MAPK signaling pathway in mouse RAW264.7 cells assessed as reduction in LPS-induced JNK phosphorylation at 50 uM by Western blot analysis; assay type: cell-based
RAW264.7 [4] = assay: Inhibition of NFkappaB/MAPK signaling pathway in mouse RAW264.7 cells assessed as reduction in LPS-induced p38 phosphorylation at 50 uM by Western blot analysis; assay type: cell-based
RAW264.7 [5] = assay: Inhibition of NFkappaB/MAPK signaling pathway in mouse RAW264.7 cells assessed as reduction in LPS-induced IkappaBalpha degradation at 50 uM by Western blot analysis; assay type: cell-based
Mus musculus [6] = assay: Anti-colitis activity in male C57BL/6 mouse model of DSS-induced ulcerative colitis assessed as colon length at 10 mg/kg, po administered for 11 days with subsequent administration of DSS for 8 days (reference value: 5.2 cm); assay type: functional; settings: time 11 day
Mus musculus [7] = assay: Antiinflammatory activity in male C57BL/6 mouse model of DSS-induced ulcerative colitis assessed as reduction in spleen to body weight ratio at 10 mg/kg, po administered for 11 days with subsequent administration of DSS for 8 days; assay type: functional, organism-based; settings: time 11.0 day
Mus musculus [8] = assay: Antiinflammatory activity in male C57BL/6 mouse model of DSS-induced ulcerative colitis assessed as reduction in IL-6 level in serum at 10 mg/kg, po administered for 11 days with subsequent administration of DSS for 8 days by ELISA; assay type: functional, organism-based; settings: time 11.0 day
Mus musculus [9] = assay: Antiinflammatory activity in male C57BL/6 mouse model of DSS-induced ulcerative colitis assessed as reduction in TNF-alpha level in serum at 10 mg/kg, po administered for 11 days with subsequent administration of DSS for 8 days by ELISA; assay type: functional, organism-based; settings: time 11.0 day
Mus musculus [10] = assay: Antiinflammatory activity in male C57BL/6 mouse model of DSS-induced ulcerative colitis assessed as reduction in colonic structure destruction at 10 mg/kg, po administered for 11 days with subsequent administration of DSS for 8 days by H and E staining based analysis; assay type: functional, organism-based; settings: time 11.0 day
Mus musculus [11] = assay: Antiinflammatory activity in male C57BL/6 mouse model of DSS-induced ulcerative colitis assessed as preservation of goblet cells at 10 mg/kg, po administered for 11 days with subsequent administration of DSS for 8 days by H and E staining based analysis; assay type: functional, organism-based; settings: time 11.0 day
Mus musculus [12] = assay: Antiinflammatory activity in male C57BL/6 mouse model of DSS-induced ulcerative colitis assessed as restoration of protein status at 10 mg/kg, po administered for 11 days with subsequent administration of DSS for 8 days by H and E staining based analysis; assay type: functional, organism-based; settings: time 11.0 day
Mus musculus [13] = assay: Antiinflammatory activity in male C57BL/6 mouse model of DSS-induced ulcerative colitis assessed as reduction in macrophage infiltration in colon at 10 mg/kg, po administered for 11 days with subsequent administration of DSS for 8 days by F4/80 labeling based immunohistochemistry analysis; assay type: functional, organism-based; settings: time 11.0 day
Mus musculus [14] = assay: Antiinflammatory activity in male C57BL/6 mouse model of DSS-induced ulcerative colitis assessed as reduction in macrophage infiltration in spleen at 10 mg/kg, po administered for 11 days with subsequent administration of DSS for 8 days by F4/80 labeling based immunohistochemistry analysis; assay type: functional, organism-based; settings: time 11.0 day
Mus musculus [15] = assay: In vivo binding affinity to IRAK4 in DSS-induced ulcerative colitis C57BL/6 mouse colon assessed as thermal stabilization at 10 mg/kg, po administered for 11 days with subsequent administration of DSS for 8 days by CETSA; assay type: functional, organism-based; settings: time 11.0 day
[16] = Half life in po dosed rat; assay type: ADME, organism-based; settings: in vivo

- Activity [1]: Active
- half-life [16]: 2.8 h
SMILES: CC[C@@H]1[C@H](F)C(=O)N[C@@H]1COc1nccc2cc(C(N)=O)c(OC)cc12 [ZIMLOVISERTIB]
- inhibition (RAW264.7 [2]): Active
- inhibition (RAW264.7 [3]): Active
- inhibition (RAW264.7 [4]): Active
- inhibition (RAW264.7 [5]): Active
- Activity (Mus musculus [6]): 5.5 cm
- Activity (Mus musculus [7]): Active
- Activity (Mus musculus [8]): Active
- Activity (Mus musculus [9]): Active
- Activity (Mus musculus [10]): Active
- Activity (Mus musculus [11]): Active
- Activity (Mus musculus [12]): Active
- Activity (Mus musculus [13]): Active
- Activity (Mus musculus [14]): Active
- Activity (Mus musculus [15]): inactive
